Test results: US20030195168A1, “Therapeutic agents - III” (priority 2000, published 2003)

How the values were obtained:
Format in all cases: cell-based
[1] = biological target: T1, PKCβ (Homo sapiens, UniProt P05771); assay: EGFP-PKC isoform translocation in HeLa cells
T1 construct: host or cells: HeLa cells
Description: (§1) Five EGFP-PKC isoforms (Clontech) were available for this experiment, enabling the screening of the three predominant PKC families (i.e. classical, novel and atypical PKCs). The members of the various PKC families are α, β, and γ (classical), θ (novel) and ζ (atypical).
(§2) HeLa cells were plated out in a 24-well plate containing coverslips and transfected with PKC isoforms fused to EGFP, using a commercially available effectine-transfection kit (QIAGEN, Pty. Ltd.). Cells were exposed to the transfection reagents for 16-24 hr. Subsequently, transfected cells were treated for one hour with TPA (100 ng/mL), bryostatin-1 (5 pg/mL), PEP003 (2.25 μg/mL; 5 μM) or PEP005 ([…]) 1.5 μM). Following treatment, cells were fixed on coverslips and mounted on glass slides. The slides were subsequently examined visually by fluorescence microscopy, photographed, and over 150 cells were counted/treatment/PKC isoform. Counted cells were classified according to the localisation of the PKC-EGFP fluorescence as either cytoplasmic or plasma membrane using ImagePro™ 4.1 (FIG. 5). […] The number of these cells was also counted. Results are presented as an average and standard deviation of percentages of cells (Table 1).

[2] = biological target: T2, PKCγ (Homo sapiens, UniProt P05129); assay: EGFP-PKC isoform translocation in HeLa cells
T2 construct: host or cells: HeLa cells
Description: as §1, §2

[3] = biological target: T3, PKCζ (Homo sapiens, UniProt Q05513); assay: EGFP-PKC isoform translocation in HeLa cells; settings: one hour, TPA 100 ng/mL, bryostatin-1 5 pg/mL, PEP003 2.25 μg/mL (5 μM), PEP005 670 μg/mL (1.5 μM)
T3 construct: host or cells: HeLa cells
T3 sequence (Q05513 1-592): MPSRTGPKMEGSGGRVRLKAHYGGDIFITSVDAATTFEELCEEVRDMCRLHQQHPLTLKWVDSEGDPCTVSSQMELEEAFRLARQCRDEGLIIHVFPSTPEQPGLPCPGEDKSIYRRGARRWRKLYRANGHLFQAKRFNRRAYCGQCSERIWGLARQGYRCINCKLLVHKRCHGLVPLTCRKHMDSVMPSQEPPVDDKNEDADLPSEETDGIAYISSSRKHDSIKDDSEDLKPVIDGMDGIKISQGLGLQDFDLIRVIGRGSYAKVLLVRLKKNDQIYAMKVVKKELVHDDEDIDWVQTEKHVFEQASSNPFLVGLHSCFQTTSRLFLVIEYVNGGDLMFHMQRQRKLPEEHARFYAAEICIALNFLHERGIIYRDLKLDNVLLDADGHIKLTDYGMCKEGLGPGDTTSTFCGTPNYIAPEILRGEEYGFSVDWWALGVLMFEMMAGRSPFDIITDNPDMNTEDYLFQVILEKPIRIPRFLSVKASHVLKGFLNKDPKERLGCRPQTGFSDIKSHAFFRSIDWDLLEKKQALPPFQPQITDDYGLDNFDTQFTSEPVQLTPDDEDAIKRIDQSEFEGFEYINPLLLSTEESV
Description: as §1, §2

[4] = biological target: T4, PKCθ (Homo sapiens, UniProt Q04759); assay: EGFP-PKC isoform translocation in HeLa cells; settings: one hour, TPA 100 ng/mL, bryostatin-1 5 pg/mL, PEP003 2.25 μg/mL (5 μM), PEP005 670 μg/mL (1.5 μM)
T4 construct: host or cells: HeLa cells
Description: as §1, §2

[5] = system: HIV-strain pNL4-3; assay: HIV-1 replication in acutely infected PBMC (CA-p24 ELISA)
Description: Experiments were conducted to assess the effect of the compounds of the instant invention on HIV-1 replication in acutely infected T cells. Peripheral blood mononuclear cells (PBMC) were obtained from non-HIV-1, non-HIV-2, non-Hepatitis B/C infected donors, stimulated with phytohemagglutinin-M and grown in culture media supplemented with 10 U/mL interleukin-2. The activated PBMC were infected with […] (Low Titre) and 100 ng (High Titre) of CA-p24 equivalents of the HIV-strain pNL4-3. Cells were infected for two hr after which, the virus was removed and the cells were washed with culture media. Equivalent numbers of cells were seeded into 24 well plates and compounds were added to the cultured cells that included: TPA at 8 riM and 80 nM, Ingenol at 280 nM, PEP003 at 500 nM, 50 nM and 5 nM, or PEP004 at dilutions of 1×10^4 and 1×10^5 from the stock (final concentrations). In addition, uninfected activated PBMC were grown in the presence of TPA (80 nM), Ingenol (280 nM), PEP003 (500 nM) and PEP004 (1×10^4 dilution). Other cultures were neither infected nor treated with any compound, or infected but not treated with any compound. Supernatant was removed from each culture at day 0, 3, 7, and 10. The amount of HIV-1 CA-p24 was determined using a commercially available ELISA assay. Three independent experiments were performed.

[6] = one hour, TPA 100 ng/mL, bryostatin-1 5 pg/mL, PEP003 2.25 μg/mL (5 μM), PEP005 670 μg/mL (1.5 μM)

T1 sequence (P05771 whole entry, species assumed, canonical isoform): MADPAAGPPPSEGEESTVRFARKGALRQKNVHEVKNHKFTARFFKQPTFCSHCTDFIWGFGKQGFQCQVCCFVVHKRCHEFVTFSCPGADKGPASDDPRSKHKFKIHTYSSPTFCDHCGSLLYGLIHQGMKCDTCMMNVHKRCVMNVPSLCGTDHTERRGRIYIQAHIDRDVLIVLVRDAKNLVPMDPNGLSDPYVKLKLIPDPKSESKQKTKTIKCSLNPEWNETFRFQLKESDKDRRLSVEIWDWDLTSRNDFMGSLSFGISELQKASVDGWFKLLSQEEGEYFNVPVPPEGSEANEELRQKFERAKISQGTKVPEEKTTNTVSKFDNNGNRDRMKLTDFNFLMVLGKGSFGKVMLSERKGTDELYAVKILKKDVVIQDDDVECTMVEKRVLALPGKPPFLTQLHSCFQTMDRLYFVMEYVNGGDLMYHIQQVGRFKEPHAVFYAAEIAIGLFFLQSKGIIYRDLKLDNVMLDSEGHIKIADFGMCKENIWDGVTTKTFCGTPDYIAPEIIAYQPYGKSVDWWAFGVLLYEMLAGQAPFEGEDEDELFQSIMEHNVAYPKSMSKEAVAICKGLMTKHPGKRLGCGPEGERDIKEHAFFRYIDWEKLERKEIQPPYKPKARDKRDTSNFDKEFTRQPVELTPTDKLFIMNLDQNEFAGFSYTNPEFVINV
T4 sequence (Q04759 whole entry, canonical isoform): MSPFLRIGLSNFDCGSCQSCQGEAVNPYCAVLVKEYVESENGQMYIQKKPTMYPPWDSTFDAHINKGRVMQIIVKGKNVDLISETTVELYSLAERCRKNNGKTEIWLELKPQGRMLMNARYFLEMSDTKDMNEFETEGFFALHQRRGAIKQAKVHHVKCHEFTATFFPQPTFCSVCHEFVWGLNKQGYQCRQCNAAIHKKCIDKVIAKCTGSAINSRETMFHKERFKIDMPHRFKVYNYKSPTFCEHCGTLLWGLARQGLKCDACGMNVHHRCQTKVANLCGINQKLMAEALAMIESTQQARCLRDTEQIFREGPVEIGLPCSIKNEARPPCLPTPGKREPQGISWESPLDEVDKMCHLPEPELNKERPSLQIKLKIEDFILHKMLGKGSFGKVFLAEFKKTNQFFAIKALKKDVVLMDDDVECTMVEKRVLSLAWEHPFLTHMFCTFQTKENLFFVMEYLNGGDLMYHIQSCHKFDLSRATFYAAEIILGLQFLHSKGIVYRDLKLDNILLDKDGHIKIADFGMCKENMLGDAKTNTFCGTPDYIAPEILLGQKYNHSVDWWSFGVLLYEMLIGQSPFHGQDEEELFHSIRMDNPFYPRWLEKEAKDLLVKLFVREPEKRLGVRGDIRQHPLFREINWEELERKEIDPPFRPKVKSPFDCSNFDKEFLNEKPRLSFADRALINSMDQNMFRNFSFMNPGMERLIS

Structure (SMILES): CCCCCCCCCCCCCC(=O)O[C@@H]1[C@@H](C)[C@@]2(O)[C@@H](C=C(CO)C[C@]3(O)C(=O)C(C)=C[C@@H]23)C2C(C)(C)[C@@]21OC(C)=O (single isomer, unassigned) [TPA]
- number of PKCβ transfected cells with Golgi-like fluorescence ([1]; one hour treatment): increase in Golgi-Tike fluorescence
- translocation of PKCβ to the plasma membrane [1, 6]: translocated from the cytoplasm to the plasma membrane
- number of PKCγ transfected cells displaying Golgi-like fluorescence ([2]; one hour treatment): increase in the number of cells displaying Golgi-like fluorescence
- translocation of PKCγ to the plasma membrane [2, 6]: translocated from the cytoplasm to the plasma membrane
- translocation of PKCζ [3]: fail to induce translocation
- translocation of PKCθ [4]: translocated
- reduction of HIV-1 replication rate ([5]; 8 nM): ~38%
- reduction of HIV-1 replication rate ([5]; 80 nM): ~98%
